# Experimental data reported in patent US9216991B2 (Ares Trading S.A., priority 2012, dated 2015).
# Counter-ions that a name gives are not always drawn.
# Target: T1, IRAK4 (Homo sapiens, UniProt Q9NWZ3)
# T1 construct: His (N); TEV cleavage site (N)
# T1 sequence (Q9NWZ3 1-460): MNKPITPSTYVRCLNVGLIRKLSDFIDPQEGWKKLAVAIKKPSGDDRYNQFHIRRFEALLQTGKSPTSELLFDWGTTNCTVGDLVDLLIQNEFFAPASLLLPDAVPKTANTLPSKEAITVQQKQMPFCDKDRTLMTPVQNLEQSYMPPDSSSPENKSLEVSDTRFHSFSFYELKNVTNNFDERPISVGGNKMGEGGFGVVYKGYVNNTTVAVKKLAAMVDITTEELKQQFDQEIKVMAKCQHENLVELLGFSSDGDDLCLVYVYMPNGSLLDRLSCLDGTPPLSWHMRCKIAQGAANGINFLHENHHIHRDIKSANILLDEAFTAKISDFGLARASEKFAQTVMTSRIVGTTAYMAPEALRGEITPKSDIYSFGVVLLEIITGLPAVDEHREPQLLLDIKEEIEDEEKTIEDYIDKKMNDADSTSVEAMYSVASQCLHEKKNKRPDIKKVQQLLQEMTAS
# Test: IRAK4 Enzymatic Assay
# Type: biochemical
# Settings: His-TEV-IRAK4 20 ng/well, ATP 2 μM, STK1-biotin peptide 300 nM, 3 hours at 30° C., FlashPlate radioactivity
# How it was run: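 Radiometric FlashPlate readout: biotin-STK1 substrate (300 nM) captured on streptavidin after EDTA stop and washes. Reaction used His-TEV-IRAK4 (20 ng/well), 2 μM [^33P]-spiked ATP and compound (1 nM-20 μM), incubated 3 h at 30 °C in 50 mM HEPES pH 7.0, 10 mM MgCl2, 5 mM MnCl2, 2 mM DTT.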
row,IC50 [µM],Compound
1,1 to 5,"O=C(Cn1cc(-c2cnc(-c3cccc(-c4ccncc4)c3)nc2)cn1)N1CCOCC1 [Example 68, 1-Morpholin-4-yl-2-{4-[2-(3-pyridin-4-yl-phenyl)-pyrimidin-5-yl]-pyrazol-1-yl}-ethanone]"
2,< 0.1,"Cn1cc(-c2cccc(-c3ncc(-c4cnn(C5CC6COCC(C5)N6)c4)cn3)c2)cn1 (stereo not drawn) [Example 179, 7-(4-{2-[3-(1-Methyl-1H-pyrazol-4-yl)-phenyl]-pyrimidin-5-yl}-pyrazol-1-yl)-3-oxa-9-aza-bicyclo[3.3.1]nonane]"
3,1 to 5,"Cn1cc(-c2cccc(-c3ncc(-c4cn(C5CCOCC5)nc4C(=O)O)cn3)c2)cn1 [Example 140, 4-{2-[3-(1-Methyl-1H-pyrazol-4-yl)-phenyl]-pyrimidin-5-yl}-1-(tetrahydro-pyran-4-yl)-1H-pyrazole-3-carboxylic acid]"
4,0.1 to 1,"COCCC(=O)N1CCC(n2cc(-c3cnc(-c4cccc(-c5cnn(C)c5)c4)nc3)cn2)CC1 [Example 109, 3-Methoxy-1-[4-(4-{2-[3-(1-methyl-1H-pyrazol-4-yl)-phenyl]-pyrimidin-5-yl}-pyrazol-1-yl)-piperidin-1-yl]-propan-1-one]"
5,< 0.1,"Cn1cc(-c2cccc(-c3ncc(-c4cnn([C@H]5CC[C@H](C(=O)NCCO)CC5)c4)cn3)c2)cn1 [Example 184, trans-4-(4-{2-[3-(1-Methyl-1H-pyrazol-4-yl)-phenyl]-pyrimidin-5-yl}-pyrazol-1-yl)-cyclohexanecarboxylic acid (2-hydroxy-ethyl)-amide]"
6,0.1 to 1,"CNC(=O)C1CC(n2cc(-c3cnc(-c4cccc(-c5cnn(C)c5)c4)nc3)cn2)C1 (stereo not drawn) [Example 157, 3-(4-{2-[3-(1-Methyl-1H-pyrazol-4-yl)-phenyl]-pyrimidin-5-yl}-pyrazol-1-yl)-cyclobutanecarboxylic acid methylamide]"
7,1 to 5,"CN(C)C(=O)[C@H]1C[C@H]2COC[C@@H](C1)[C@@H]2n1cc(-c2cnc(-c3cccc(-c4cnn(C)c4)c3)nc2)cn1 [Example 194, cis-cis-9-(4-{2-[3-(1-Methyl-1H-pyrazol-4-yl)-phenyl]-pyrimidin-5-yl}-pyrazol-1-yl)-3-oxa-bicyclo[3.3.1]nonane-7-carboxylic acid dimethylamide]"
8,0.1 to 1,"CC(=O)Cn1cc(-c2cnc(-c3cccc(-c4cnn(C)c4)c3)nc2)cn1 [Example 44, 1-(4-{2-[3-(1-Methyl-1H-pyrazol-4-yl)-phenyl]-pyrimidin-5-yl}-pyrazol-1-yl)-propan-2-one]"
9,< 0.1,"Cn1cc(-c2cccc(-c3ncc(-c4cnn([C@H]5CC[C@H](N6CCOCC6)CC5)c4)cn3)c2)cn1 [Example 208, Trans-4-[4-(4-{2-[3-(1-Methyl-1H-pyrazol-4-yl)-phenyl]-pyrimidin-5-yl}-pyrazol-1-yl)-cyclohexyl]-morpholine]"
10,< 0.1,"Cn1cc(-c2cccc(-c3ncc(-c4cnn([C@H]5CC[C@](O)(CO)CC5)c4)cn3)c2)cn1 [Example 258, Cis-1-Hydroxymethyl-4-(4-{2-[3-(1-methyl-1H-pyrazol-4-yl)-phenyl]-pyrimidin-5-yl}-pyrazol-1-yl)-cyclohexanol]"
11,1 to 5,"Cn1cc(-c2cccc(-c3ncc(-c4cnn(CCC(=O)N5CC6(COC6)C5)c4)cn3)c2)cn1 [Example 101, 3-(4-{2-[3-(1-Methyl-1H-pyrazol-4-yl)-phenyl]-pyrimidin-5-yl}-pyrazol-1-yl)-1-(2-oxa-6-aza-spiro[3.3]hept-6-yl)-propan-1-one]"
12,0.1 to 1,"COCCC(=O)N[C@H]1CC[C@@H](n2cc(-c3cnc(-c4cccc(-c5cnn(C)c5)c4)nc3)cn2)CC1 [Example 166, Cis-3-Methoxy-N-[4-(4-{2-[3-(1-methyl-1H-pyrazol-4-yl)-phenyl]-pyrimidin-5-yl}-pyrazol-1-yl)-cyclohexyl]-propionamide]"
13,0.1 to 1,"Cn1cc(-c2cccc(-c3ncc(-c4cnn([C@H]5C=C[C@@H](O)C5)c4)cn3)c2)cn1 [Example 231, (1S,4R)-4-[4-[2-[3-(1-methylpyrazol-4-yl)phenyl]pyrimidin-5-yl]pyrazol-1-yl]cyclopent-2-en-1-ol]"
14,0.1 to 1,"COC1CCN(C(=O)Cn2cc(-c3cnc(-c4cccc(-c5cnn(C)c5)c4)nc3)cn2)C1 (stereo not drawn) [Example 90, 1-(3-Methoxy-pyrrolidin-1-yl)-2-(4-{2-[3-(1-methyl-1H-pyrazol-4-yl)-phenyl]-pyrimidin-5-yl}-pyrazol-1-yl)-ethanone]"
15,0.1 to 1,"Cn1cc(-c2cccc(-c3ncc(-c4cnn(C5CCOCC5)c4)cn3)c2)cn1 [Example 97, 2-[3-(1-Methyl-1H-pyrazol-4-yl)-phenyl]-5-[1-(tetrahydro-pyran-4-yl)-1H-pyrazol-4-yl]-pyrimidine]"
16,0.1 to 1,"Cn1cc(-c2cccc(-c3ncc(-c4cn[nH]c4)cn3)c2)cn1 [Example 3, 2-[3-(1-methyl-1H-pyrazol-4-yl)phenyl]-5-(1H-pyrazol-4-yl)pyrimidine]"
17,1 to 5,"Cn1cc(-c2cccc(-c3ncc(-c4cnn(C[C@H]5CCCN5)c4)cn3)c2)cn1 [Example 71, 2-[3-(1-Methyl-1H-pyrazol-4-yl)-phenyl]-5-(1-(R)-1-pyrrolidin-2-ylmethyl-1H-pyrazol-4-yl)-pyrimidine hydrochloride]"
18,0.1 to 1,"Cn1cc(-c2cccc(-c3ncc(-c4cnn(CC(=O)N5CCC6(CC5)COC6)c4)cn3)c2)cn1 [Example 86, 2-(4-{2-[3-(1-Methyl-1H-pyrazol-4-yl)-phenyl]-pyrimidin-5-yl}-pyrazol-1-yl)-1-(2-oxa-7-aza-spiro[3.5]non-7-yl)-ethanone]"
19,0.1 to 1,"CC(CO)NC(=O)[C@H]1CC[C@H](n2cc(-c3cnc(-c4cccc(-c5cnn(C)c5)c4)nc3)cn2)CC1 (stereo partly drawn) [Example 188, trans-4-(4-{2-[3-(1-Methyl-1H-pyrazol-4-yl)-phenyl]-pyrimidin-5-yl}-pyrazol-1-yl)-cyclohexanecarboxylic acid (2-hydroxy-1-methyl-ethyl)-amide]"
20,0.1 to 1,"Cn1cc(-c2cccc(-c3ncc(-c4cnn(C5CCC(=O)CC5)c4)cn3)c2)cn1 [Example 189, 4-(4-{2-[3-(1-Methyl-1H-pyrazol-4-yl)-phenyl]-pyrimidin-5-yl}-pyrazol-1-yl)-cyclohexanone]"
21,< 0.1,"Cn1cc(-c2cccc(-c3ncc(-c4cnn([C@H]5CC[C@H](C(=O)N6CC[C@@H](O)C6)CC5)c4)cn3)c2)cn1 [Example 186, ((R)-3-Hydroxy-pyrrolidin-1-yl)-[4-(4-{2-[3-(1-methyl-1H-pyrazol-4-yl)-phenyl]-pyrimidin-5-yl}-pyrazol-1-yl)-cyclohexyl]-methanone]"
22,< 0.1,"CC(=O)N1CCC(n2cc(-c3cnc(-c4cccc(-c5cnn(C)c5)c4)nc3)cn2)C(F)(F)C1 (stereo not drawn) [Example 284, 1-[3,3-Difluoro-4-(4-{2-[3-(1-methyl-1H-pyrazol-4-yl)-phenyl]-pyrimidin-5-yl}-pyrazol-1-yl)-piperidin-1-yl]-ethanone]"
23,0.1 to 1,"Cn1cc(-c2cccc(-c3ncc(-c4cnn(C5CCN(CC(O)C(F)(F)F)CC5)c4)cn3)c2)cn1 (stereo not drawn) [Example 31, 1,1,1-Trifluoro-3-[4-(4-{2-[3-(1-methyl-1H-pyrazol-4-yl)-phenyl]-pyrimidin-5-yl}-pyrazol-1-yl)-piperidin-1-yl]-propan-2-ol]"
24,0.1 to 1,"Cn1cc(-c2cccc(-c3ncc(-c4cnn(CCC5CCOC5)c4)cn3)c2)cn1 (stereo not drawn) [Example 131, 2-[3-(1-Methyl-1H-pyrazol-4-yl)-phenyl]-5-{1-[2-(tetrahydro-furan-3-yl)-ethyl]-1H-pyrazol-4-yl}-pyrimidine]"
